Measurements published in patent publication EP1254122B1, “NOVEL 3-SUBSTITUTED 1,2,4-BENZOTRIAZINES, A METHOD FOR THEIR PRODUCTION AND THE USE THEREOF” (UFZ-UMWELTFORSCHUNGSZENTRUM Leipzig-Halle GmbH, priority 1999, dated 2001).
Values after ≈ are worked out from the molar mass of the structure shown.

Key:
Assay type in all cases: cell-based
[1] = system: Hep2; assay: Inhibition of cell growth, Hep2 cells; settings: 37°C, three days, evaluated by microscope against untreated reference cells; for IC50: Homo sapiens, HEp-2, 72 h, read-out: IC50-Wert (50%ige Hemmung des Zellwachstums in µg/ml)
Experimental: (§1) Zu je 1 ml einer entsprechenden Zellstammlösung werden die zu testenden Substanzen in wäßriger steriler Lösung in Konzentrationsschritten von je 2-50 µg gespritzt. Die Testkammern werden anschließend zusammen mit einer unbehandelten Referenzkammer bei 37°C drei Tage entwickelt.
(§2) Die Auswertung erfolgt mittels Mikroskop. Es werden Zellvermehrung bzw. Zellzerstörung (Zustand der Zellmembran sowie des Zellkern) mit unbehandelten Referenzzellen verglichen. Tabelle: IC50-Wert (50%ige Hemmung des Zellwachstums in µg/ml) ausgewählter Substanzen der Formel I

[2] = system: HeLa; assay: Inhibition of cell growth, HeLa cells; settings: 37°C, three days, evaluated by microscope against untreated reference cells; for IC50: Homo sapiens, 72 h, read-out: IC50-Wert (50%ige Hemmung des Zellwachstums in µg/ml)
Experimental: as §1, §2

[3] = system: Peritoneal carcinom; assay: Inhibition of cell growth, peritoneal carcinoma cells; settings: 37°C, three days, evaluated by microscope against untreated reference cells; for IC50: 72 h, read-out: IC50-Wert (50%ige Hemmung des Zellwachstums in µg/ml)
Experimental: as §1, §2

[4] = system: permanenten Zellkulturen; assay: Inhibition of cell growth, permanent cell cultures (overall statement); settings: result in words; HeLa-, Hep2-, Peritonealcarcinom- and Pleurocarcinomzellen
Experimental: as §1, §2
Die erfindungsgemäßen Verbindungen hemmen sämtlich das Zellwachstum von permanenten Zellkulturen wie z.B. von HeLa-, Hep2-Zellen, von Peritonealcarcinom- sowie von Pleurocarcinomzellen.

[5] = system: Pleurocarcinom; assay: Inhibition of cell growth, pleural carcinoma cells; settings: 72 h, 37°C, three days, evaluated by microscope against untreated reference cells, read-out: IC50-Wert (50%ige Hemmung des Zellwachstums in µg/ml)
Experimental: as §1, §2

Compound | IC50 [1] | IC50 [2] | IC50-Wert (50%ige Hemmung des Zellwachstums in µg/ml) [2] | IC50-Wert (50%ige Hemmung des Zellwachstums in µg/ml) [3] | IC50 [3] | Hemmung des Zellwachstums (Wirksamkeit) [4] | IC50-Wert (50%ige Hemmung des Zellwachstums in µg/ml) [1] | IC50 [5]
OC[C@@H](O)[C@@H](O)[C@H](O)c1nnc2ccccc2n1 [Verbindung h, 3-(D-arabino-Tetritol-1-yl)-1,2,4-benzotriazin] | 150 µg/mL (≈ 597 µM) | 150 µg/mL (≈ 597 µM) | – | – | – | – | – | –
COC(=O)Cc1nnc2ccc(Cl)c(N)c2n1 [Verbindung d, 3-(Methoxy-carbonylmethyl)-5-amino-6-chlor-benzo-1,2,4-triazin] | – | – | 50 µg/mL (≈ 198 µM) | 25 to 30 µg/mL | – | – | – | –
CC(C)NC(=O)Cc1nnc2ccccc2n1 [Verbindung l, 3-(Isopropylamino-carbonylmethyl)-1,2,4-benzotriazin] | 100 µg/mL (≈ 434 µM) | 86 µg/mL (≈ 373 µM) | – | – | 170 µg/mL (≈ 738 µM) | bevorzugte Wirksamkeit | – | –
CCOC(=O)Cc1nnc2ccc(Br)cc2n1 [Verbindung g, 3-(Ethoxy-carbonylmethyl)-6-brom-benzo-1,2,4-triazin] | – | – | 8 to 16 µg/mL | 35 µg/mL (≈ 118 µM) | – | bevorzugte Wirksamkeit | 8 to 16 µg/mL | –
COC(=O)Cc1nnc2ccccc2n1 [Verbindung e, 3-(Methoxy-carbonylmethyl)-1,2,4-benzotriazin] | 100 µg/mL (≈ 492 µM) | 180 µg/mL (≈ 886 µM) | – | – | 350 µg/mL (≈ 1720 µM) | – | – | 500 µg/mL (≈ 2460 µM)
COC(=O)Cc1nnc2cccc(Cl)c2n1 [Verbindung c, 3-(Methoxy-carbonylmethyl)-5-chlor-benzo-1,2,4-triazin] | – | – | 8 to 16 µg/mL | 12 µg/mL (≈ 50.5 µM) | – | bevorzugte Wirksamkeit | 16 µg/mL (≈ 67.3 µM) | –
3-(D-galacto-Tetritol-1-yl)-1,2,4-benzotriazin [Verbindung i] | – | – | 400 µg/mL | – | – | – | – | –
OC[C@@H](O)[C@@H](O)[C@H](O)c1nnc2ccc(Cl)cc2n1 [Verbindung k, 3-(D-arabino-Tetritol-1-yl)-6-chlor-benzo-1,2,4-triazin] | – | – | 250 µg/mL (≈ 875 µM) | – | – | – | – | –
COC(=O)Cc1nnc2ccc(Cl)cc2n1 [Verbindung b, 3-(Methoxy-carbonylmethyl)-6-chlor-benzo-1,2,4-triazin] | – | – | 160 µg/mL (≈ 673 µM) | 150 µg/mL (≈ 631 µM) | – | – | 120 µg/mL (≈ 505 µM) | –
CCOC(=O)Cc1nnc2ccccc2n1 [Verbindung f, 3-(Ethoxy-carbonylmethyl)-1,2,4-benzotriazin] | 190 to 200 µg/mL (≈ 875 to 921 µM) | 378 µg/mL (≈ 1740 µM) | – | – | 180 µg/mL (≈ 829 µM) | – | – | 500 µg/mL (≈ 2300 µM)
